Test results reported in publication PMC10590383, “Repurposing conformational changes in ANL superfamily enzymes to rapidly generate biosensors for organic and amino acids” (Nature Communications, 2023).

How the values were obtained:
GECFINDER-Ile1 = target: T1, GECFINDER-Ile1 (Bacillus licheniformis, UniProt O68006); assay: Fluorescence dose-response of purified cpEGFP sensors (0.75 uM) in 100 mM Tris-HCl pH 7.5, room temperature, 1 mM ATP, 2.5 mM MgCl2; excitation 400, 460 or 480 nm by sensor, emission 510 nm; logistic five-parameter fit.; assay type: biochemical; settings: n = 3
T1 construct: gene bacA; BacA-IleA-PCP; cpEGFP inserted, linkers VY-CA
Protocol: (§1) Fig. 3 Dose–response curves and fluorescence spectrums of […]s. a, c, e, g, i, k Dose–response curve of purified […]s with increasing concentrations of ligand in 100 mM Tris-HCl buffer (pH=7.5). The normalized ΔF/F0 value increased after ligand binding. All data shown are mean ± S.D. (n = 3 biologically independent samples). b, d, f, h, j, l The fluorescence spectra of […]s changed as the ligand concentration increased. All data shown are mean ± S.D. (n = 3 biologically independent samples). Source data are provided as a Source data file.
(§2) The study conducted dose–response curve, substrate specificity, and fluorescent spectrum analyses in 100-mM Tris buffer (pH = 7.5), while pH stability experiments were performed in 100-mM Tris buffer at three different pH values (6.5, 7.5, and 8.5) at room temperature. […] protein at a concentration of 0.75 μM, various small molecule concentrations, 1 mM ATP, and 2.5 mM MgCl2 were used in the experiments. Fluorescent signals were detected using a Microplate Reader (Synergy H4, Bio Tek) at an excitation/emission wavelength of 460 nm/510 nm or 480 nm/510 nm. The dose-response curve was determined immediately after the addition of the analyte. The total duration of the measurement was 15 min, with readings taken at one-minute intervals. The dose-response curve was plotted using the fluorescence values obtained after achieving stability in the fluorescence signal. The dose-response curves were fitted using the logistic model LOGISTIC5 available in Origin 2021, which could provide a more adequate fit to asymmetric dose-response data[62],[63]. Excitation spectra were scanned from 300 to 540 nm with a step size of 5 nm, and the emission wavelength was set to 560 nm. Emission spectra were scanned from 470 to 700 nm with a step size of 5 nm, and the excitation wavelength was set to 450 nm. The thermal stability of […] was analyzed using the UNcle multifunctional protein stability analysis system. Measurements were performed in 20 mM MOPS buffer with 2 mM DTT at a sample concentration of 1 mg/mL. Absolute fluorescence quantum yields were measured using an absolute photoluminescence quantum yield spectrometer (FS5, Edinburgh).

GECFINDER-Ile2 = target: T2, GECFINDER-Ile2 (Bacillus licheniformis, UniProt O68006); assay: as above; assay type: biochemical; settings: n = 3
T2 construct: gene bacA; BacA-IleA-PCP; cpEGFP inserted, linkers RY-PG
Protocol: as §1, §2

GECFINDER-Ile3 = target: T3, GECFINDER-Ile3 (Bacillus licheniformis, UniProt O68006); assay: as above; assay type: biochemical; settings: n = 3
T3 construct: gene bacA; BacA-IleA-PCP; cpEGFP inserted, linkers VY-LS
Protocol: as §1, §2

[1] = Dose–response curve of purified […] with 4-coumaric acid; assay type: biochemical
Protocol: (§3) Fig. 3 Dose–response curves and fluorescence spectrums of […]s. a, c, e, g, i, k Dose–response curve of purified […]s with increasing concentrations of ligand in 100 mM Tris-HCl buffer (pH=7.5). […] All data shown are mean ± S.D. (n = 3 biologically independent samples). Source data are provided as a Source data file.
The study conducted dose–response curve, substrate specificity, and fluorescent spectrum analyses in 100-mM Tris buffer (pH = 7.5), while pH stability experiments were performed in 100-mM Tris buffer at three different pH values (6.5, 7.5, and 8.5) at room temperature. […] Fluorescent signals were detected using a Microplate Reader (Synergy H4, Bio Tek) at an excitation/emission wavelength of 460 nm/510 nm or 480 nm/510 nm. The dose-response curve was determined immediately after the addition of the analyte. The total duration of the measurement was 15 min, with readings taken at one-minute intervals. The dose-response curve was plotted using the fluorescence values obtained after achieving stability in the fluorescence signal. […] Excitation spectra were scanned from 300 to 540 nm with a step size of 5 nm, and the emission wavelength was set to 560 nm. Emission spectra were scanned from 470 to 700 nm with a step size of 5 nm, and the excitation wavelength was set to 450 nm. The thermal stability of […] was analyzed using the UNcle multifunctional protein stability analysis system. Measurements were performed in 20 mM MOPS buffer with 2 mM DTT at a sample concentration of 1 mg/mL. Absolute fluorescence quantum yields were measured using an absolute photoluminescence quantum yield spectrometer (FS5, Edinburgh).

[2] = Fluorescence spectra / excitation wavelength scan of […]s; assay type: physicochemical; settings: Wavelength 300 nm
Protocol: as §3, §2

[3] = Dependence of […]s on Mg2+ and ATP (fluorescence intensity); assay type: biochemical; settings: ATP +
Source text: Ligand specificity is an important biosensors feature. Generally, the NRPS A domains have high specificity for their substrates because they are the first “gatekeeper” of NRPSs and ensure that the correct monomers are activated and thioesterified[32],[33]. […] Twenty proteinogenic amino acids were used to test the ligand specificity of […]s. […] We also investigated the dependence of […]s on Mg^2+ and ATP (Supplementary Fig. 4).
Supplementary Fig. 4 Dependence of GEC FINDER s on Mg2+ and ATP . a-j, Fluore scence intensities of
GECF IN DERs in the absence of any substra te, in the pre sence of Mg2+ alone, ATP alone, both Mg2+ and ATP, Mg2+
and ATP with re spective substra tes. Mg2+ concentra tion was 2.5 mM, and ATP concentra tion was 1 mM. a, 100 μM
data are provided as a Source Data file.

GECFINDER-4CA = target: T4, GECFINDER-4CA (Nicotiana tabacum, UniProt O24146); assay: Fluorescence dose-response of purified cpEGFP sensors (0.75 uM) in 100 mM Tris-HCl pH 7.5, room temperature, 1 mM ATP, 2.5 mM MgCl2; excitation 400, 460 or 480 nm by sensor, emission 510 nm; logistic five-parameter fit.; assay type: biochemical; settings: n = 3
T4 construct: gene 4CL2; cpEGFP with fixed linkers (LE-cpEGFP-TR) inserted between Leu439 and Ile440 in hinge A of Nt4CL2
Protocol: as §1, §2

GECFINDER-ATP = target: T5, GECFINDER-ATP (Bacillus subtilis, UniProt P39845); assay: Fluorescence dose-response of purified […]-ATP with ATP as the varied ligand (10 nM to 2 mM), 100 mM Tris pH 7.5, room temperature, excitation/emission 480/510 nm.; assay type: biochemical; settings: n = 3
T5 construct: gene ppsA; PpsA-GluA A domain; LE-cpEGFP-TR inserted between Asp425 and Asp426 in hinge A
Protocol: as §2, with “Excitation spectra were scanned from 300 to 540 nm with a step size of 5 nm, and the emission wavelength was set to 560 nm. Emission spectra were scanned from 470 to 700 nm with a step size of 5 nm, and the excitation wavelength was set to 450 nm.” left out, “Measurements were performed in 20 mM MOPS buffer with 2 mM DTT at a sample concentration of 1 mg/mL.” left out, “Edinburgh). […]” for “Edinburgh).”

At4CL2 = settings: ATP Km of At4CL2, homolog of Nt4CL2; cited from earlier work
GrsA-Phe A domain = settings: Km for ATP of GrsA-Phe A domain; cited from earlier work
GECFINDER-His1 = target: T6, GECFINDER-His1 (Bacillus licheniformis, UniProt O68008); assay: Fluorescence dose-response of purified cpEGFP sensors (0.75 uM) in 100 mM Tris-HCl pH 7.5, room temperature, 1 mM ATP, 2.5 mM MgCl2; excitation 400, 460 or 480 nm by sensor, emission 510 nm; logistic five-parameter fit.; assay type: biochemical; settings: n = 3
T6 construct: gene bacC; BacC-HisA-PCP; cpEGFP inserted, linkers GA-HC
Protocol: as §1, §2

GECFINDER-His2 = target: T7, GECFINDER-His2 (Bacillus licheniformis, UniProt O68008); assay: as above; assay type: biochemical; settings: n = 3
T7 construct: gene bacC; BacC-HisA-PCP; cpEGFP inserted, linkers GG-PV
Protocol: as §1, §2

T7 sequence (O68008 2956-3585): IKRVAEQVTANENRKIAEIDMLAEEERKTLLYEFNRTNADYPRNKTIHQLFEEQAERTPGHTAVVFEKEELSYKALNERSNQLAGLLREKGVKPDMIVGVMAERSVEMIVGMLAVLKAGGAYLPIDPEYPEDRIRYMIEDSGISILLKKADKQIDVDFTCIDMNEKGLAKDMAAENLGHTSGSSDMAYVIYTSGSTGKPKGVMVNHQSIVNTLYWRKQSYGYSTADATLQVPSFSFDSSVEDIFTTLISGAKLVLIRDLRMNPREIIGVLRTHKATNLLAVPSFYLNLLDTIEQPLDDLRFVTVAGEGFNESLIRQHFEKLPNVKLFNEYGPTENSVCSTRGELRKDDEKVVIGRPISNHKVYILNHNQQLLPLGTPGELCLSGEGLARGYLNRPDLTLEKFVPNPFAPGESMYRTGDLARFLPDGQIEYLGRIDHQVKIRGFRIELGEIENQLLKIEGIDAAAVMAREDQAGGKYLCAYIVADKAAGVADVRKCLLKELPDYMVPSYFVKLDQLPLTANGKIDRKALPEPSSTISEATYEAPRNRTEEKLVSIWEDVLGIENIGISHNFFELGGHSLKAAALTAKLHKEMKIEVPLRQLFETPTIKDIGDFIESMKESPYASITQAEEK
T6 sequence (O68008 2956-3585): as above
T3 sequence (O68006 1-632 N218D): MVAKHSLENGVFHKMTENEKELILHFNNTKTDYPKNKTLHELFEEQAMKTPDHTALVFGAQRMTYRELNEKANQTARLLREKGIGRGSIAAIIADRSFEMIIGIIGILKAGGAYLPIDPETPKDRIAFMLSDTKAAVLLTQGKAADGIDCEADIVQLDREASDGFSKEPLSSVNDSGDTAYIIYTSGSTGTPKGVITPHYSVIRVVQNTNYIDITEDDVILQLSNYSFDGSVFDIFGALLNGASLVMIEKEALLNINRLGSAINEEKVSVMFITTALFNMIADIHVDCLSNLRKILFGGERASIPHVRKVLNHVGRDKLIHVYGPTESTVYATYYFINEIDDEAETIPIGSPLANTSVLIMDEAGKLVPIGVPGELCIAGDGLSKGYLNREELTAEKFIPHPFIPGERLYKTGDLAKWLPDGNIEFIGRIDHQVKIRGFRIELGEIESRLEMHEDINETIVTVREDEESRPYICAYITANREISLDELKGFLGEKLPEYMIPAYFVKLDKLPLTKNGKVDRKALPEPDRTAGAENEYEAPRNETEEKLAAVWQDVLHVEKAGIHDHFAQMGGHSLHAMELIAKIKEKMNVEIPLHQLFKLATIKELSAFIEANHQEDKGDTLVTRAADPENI
T1 sequence (O68006 1-632 N218D): as above
T2 sequence (O68006 1-632 N218D): as above
T4 sequence (O24146 2-542): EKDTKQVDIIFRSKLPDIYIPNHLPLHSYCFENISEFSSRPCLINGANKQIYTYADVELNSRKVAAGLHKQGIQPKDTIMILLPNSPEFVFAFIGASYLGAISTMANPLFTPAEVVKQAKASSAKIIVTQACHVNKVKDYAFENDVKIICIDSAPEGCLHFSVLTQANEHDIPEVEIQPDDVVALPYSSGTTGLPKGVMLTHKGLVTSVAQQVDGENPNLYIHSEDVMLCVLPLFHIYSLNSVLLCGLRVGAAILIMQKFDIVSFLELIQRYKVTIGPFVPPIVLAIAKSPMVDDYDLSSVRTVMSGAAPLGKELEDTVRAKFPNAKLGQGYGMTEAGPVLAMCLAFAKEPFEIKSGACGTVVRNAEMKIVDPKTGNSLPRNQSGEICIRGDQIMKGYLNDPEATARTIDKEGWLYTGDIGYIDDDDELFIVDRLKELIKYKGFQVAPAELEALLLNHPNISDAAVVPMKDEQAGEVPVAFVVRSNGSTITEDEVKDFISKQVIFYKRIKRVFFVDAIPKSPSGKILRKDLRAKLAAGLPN
T5 sequence (P39845 434-960): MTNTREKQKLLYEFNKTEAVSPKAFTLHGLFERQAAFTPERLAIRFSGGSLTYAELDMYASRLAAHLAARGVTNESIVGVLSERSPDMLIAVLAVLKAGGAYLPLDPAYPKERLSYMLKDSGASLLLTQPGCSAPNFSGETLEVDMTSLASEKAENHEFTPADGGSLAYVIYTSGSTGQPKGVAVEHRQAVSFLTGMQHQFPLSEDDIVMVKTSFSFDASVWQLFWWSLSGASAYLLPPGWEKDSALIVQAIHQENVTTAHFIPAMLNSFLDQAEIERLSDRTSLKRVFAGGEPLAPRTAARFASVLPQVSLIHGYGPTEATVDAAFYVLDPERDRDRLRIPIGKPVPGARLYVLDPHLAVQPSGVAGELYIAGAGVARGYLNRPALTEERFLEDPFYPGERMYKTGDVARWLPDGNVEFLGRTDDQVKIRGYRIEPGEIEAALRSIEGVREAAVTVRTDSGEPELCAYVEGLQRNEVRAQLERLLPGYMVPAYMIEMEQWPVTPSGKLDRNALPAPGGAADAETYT

Compound: CC[C@H](C)[C@H](N)C(=O)O [Ile, isoleucine]
- EC50 (GECFINDER-Ile1): 161 ± 32.1 µM
- EC50 (GECFINDER-Ile2): 221 ± 66.3 µM
- EC50 (GECFINDER-Ile3): 186 ± 61 µM

Compound: O=C(O)/C=C/c1ccc(O)cc1 [4-coumaric acid]
- Dose-response, AVE of Repeat 1-3 (Fig. 3 a) ([1]; 4-coumaric acid 0.001 μM): 0
- Dose-response, AVE of Repeat 1-3 (Fig. 3 a) ([1]; 4-coumaric acid 0.01 μM): 0.02925
- Dose-response, AVE of Repeat 1-3 (Fig. 3 a) ([1]; 4-coumaric acid 0.25 μM): 0.1354
- Dose-response, AVE of Repeat 1-3 (Fig. 3 a) ([1]; 4-coumaric acid 0.5 μM): 0.2537
- Dose-response, AVE of Repeat 1-3 (Fig. 3 a) ([1]; 4-coumaric acid 2.5 μM): 0.5733
- Dose-response, AVE of Repeat 1-3 (Fig. 3 a) ([1]; 4-coumaric acid 5 μM): 0.6689
- Dose-response, AVE of Repeat 1-3 (Fig. 3 a) ([1]; 4-coumaric acid 25 μM): 0.7533
- Dose-response, AVE of Repeat 1-3 (Fig. 3 a) ([1]; 4-coumaric acid 50 μM): 0.7561
- Dose-response, AVE of Repeat 1-3 (Fig. 3 a) ([1]; 4-coumaric acid 250 μM): 0.7978
- Dose-response, AVE of Repeat 1-3 (Fig. 3 a) ([1]; 4-coumaric acid 500 μM): 0.7717
- Dose-response, AVE of Repeat 1-3 (Fig. 3 a) ([1]; 4-coumaric acid 2500 μM): 0.8533
- Dose-response, AVE of Repeat 1-3 (Fig. 3 a) ([1]; 4-coumaric acid 5000 μM): 0.8286
- Wavelength scan, AVE of Repeat 1-3 (Fig. 3 b) ([2]; 0.001 μM 4-coumaric acid): 368
- Wavelength scan, AVE of Repeat 1-3 (Fig. 3 b) ([2]; 2.5 μM 4-coumaric acid): 388.333
- Wavelength scan, AVE of Repeat 1-3 (Fig. 3 b) ([2]; 250 μM 4-coumaric acid): 108.667
- fluorescence intensity, AVE of 3 repeats ([3]; Supplementary Fig. 4 a, Mg+ +, 4-coumaric acid +): 3682.33
- EC50 (GECFINDER-4CA): 1.03 ± 0.06 µM

Compound: Nc1ncnc2c1ncn2[C@@H]1O[C@H](COP(=O)(O)OP(=O)(O)OP(=O)(O)O)[C@@H](O)[C@H]1O [ATP, adenosine triphosphate]
- fluorescence intensity, AVE of 3 repeats ([3]; Supplementary Fig. 4 a, Mg+ +, 4-coumaric acid -): 2171.67
- fluorescence intensity, AVE of 3 repeats ([3]; Supplementary Fig. 4 a, Mg+ -, 4-coumaric acid -): 2266.67
- fluorescence intensity, AVE of 3 repeats ([3]; Supplementary Fig. 4 b, Mg+ +, phenylalanine -): 9194
- fluorescence intensity, AVE of 3 repeats ([3]; Supplementary Fig. 4 b, Mg+ -, phenylalanine -): 7173.67
- fluorescence intensity, AVE of 3 repeats ([3]; Supplementary Fig. 4 c, Mg+ +, glutamine -): 17330.3
- fluorescence intensity, AVE of 3 repeats ([3]; Supplementary Fig. 4 c, Mg+ -, glutamine -): 17083
- fluorescence intensity, AVE of 3 repeats ([3]; Supplementary Fig. 4 e, Mg+ +, isoleucine -): 12985
- fluorescence intensity, AVE of 3 repeats ([3]; Supplementary Fig. 4 e, Mg+ -, isoleucine -): 12174.7
- fluorescence intensity, AVE of 3 repeats ([3]; Supplementary Fig. 4 f, Mg+ +, histidine -): 25974
- fluorescence intensity, AVE of 3 repeats ([3]; Supplementary Fig. 4 f, Mg+ -, histidine -): 26138.3
- fluorescence intensity, AVE of 3 repeats ([3]; Supplementary Fig. 4 g, Mg+ +, leucine -): 7346.67
- fluorescence intensity, AVE of 3 repeats ([3]; Supplementary Fig. 4 g, Mg+ -, leucine -): 6910.33
- fluorescence intensity, AVE of 3 repeats ([3]; Supplementary Fig. 4 i, Mg+ +, tyrosine -): 5938.67
- fluorescence intensity, AVE of 3 repeats ([3]; Supplementary Fig. 4 i, Mg+ -, tyrosine -): 5712
- fluorescence intensity, AVE of 3 repeats ([3]; Supplementary Fig. 4 j, Mg+ +, phenylalanine -): 7465
- fluorescence intensity, AVE of 3 repeats ([3]; Supplementary Fig. 4 j, Mg+ -, phenylalanine -): 7633
- fluorescence intensity, AVE of 3 repeats ([3]; Supplementary Fig. 4 h, Mg+ +, S-β-phenylalanine -): 5374.33
- fluorescence intensity, AVE of 3 repeats ([3]; Supplementary Fig. 4 h, Mg+ -, S-β-phenylalanine -): 5014
- fluorescence intensity, AVE of 3 repeats ([3]; Supplementary Fig. 4 d, Mg+ +, proline -): 50889
- fluorescence intensity, AVE of 3 repeats ([3]; Supplementary Fig. 4 d, Mg+ -, proline -): 46119
- EC50 (GECFINDER-ATP): 69.3 ± 4.69 µM
- Km (At4CL2): 163 µM
- Km (GrsA-Phe A domain): 150 µM

Compound: N[C@@H](Cc1c[nH]cn1)C(=O)O [His, histidine]
- EC50 (GECFINDER-His1): 10.4 ± 4.74 µM
- EC50 (GECFINDER-His2): 13.2 ± 4.26 µM
